Columns and labels:
[1] = biological target: Cellular tumor antigen p53 (Homo sapiens) (UniProt P04637); assay: Induction of p53 stabilization in human HCT-116 cells assessed as fold increase by Western blot analysis; type: cell-based
[2] = biological target: von Hippel-Lindau disease tumor suppressor/Steroid hormone receptor ERR1 (Homo sapiens) (UniProt P11474+P40337); assay: Protac activity at VHL/ERRalpha in human MCF7 cells assessed as maximum degradation; type: cell-based
[3] = biological target: T1, Steroid hormone receptor ERR1 (Homo sapiens) (UniProt P11474); assay: In vivo protac activity at ERRalpha in human MDA-MB-231 cells xenografted mouse assessed as reduction in ERRalpha level in tumor at 100 mg/kg, ip administered 3 times a day; type: functional, organism-based; parameters: scale not given: the % may be the effect or the level left
T1 sequence (whole entry): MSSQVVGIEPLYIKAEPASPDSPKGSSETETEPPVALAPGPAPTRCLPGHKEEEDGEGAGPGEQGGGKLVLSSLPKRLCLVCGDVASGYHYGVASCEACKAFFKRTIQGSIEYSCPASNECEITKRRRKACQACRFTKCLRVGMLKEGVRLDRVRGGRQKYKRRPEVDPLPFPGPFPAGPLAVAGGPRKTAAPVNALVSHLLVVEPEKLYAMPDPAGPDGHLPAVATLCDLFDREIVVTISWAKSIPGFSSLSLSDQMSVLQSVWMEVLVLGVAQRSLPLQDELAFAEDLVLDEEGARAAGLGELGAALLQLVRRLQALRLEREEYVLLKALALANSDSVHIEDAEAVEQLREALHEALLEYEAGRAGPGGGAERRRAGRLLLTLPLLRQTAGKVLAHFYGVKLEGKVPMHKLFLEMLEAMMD

[4] = Antiproliferative activity against human HBL1 cells expressing BTK C481S mutant assessed as growth inhibition; type: functional

Chain of Cellular tumor antigen p53 (Homo sapiens) (P04637 whole entry, looked up): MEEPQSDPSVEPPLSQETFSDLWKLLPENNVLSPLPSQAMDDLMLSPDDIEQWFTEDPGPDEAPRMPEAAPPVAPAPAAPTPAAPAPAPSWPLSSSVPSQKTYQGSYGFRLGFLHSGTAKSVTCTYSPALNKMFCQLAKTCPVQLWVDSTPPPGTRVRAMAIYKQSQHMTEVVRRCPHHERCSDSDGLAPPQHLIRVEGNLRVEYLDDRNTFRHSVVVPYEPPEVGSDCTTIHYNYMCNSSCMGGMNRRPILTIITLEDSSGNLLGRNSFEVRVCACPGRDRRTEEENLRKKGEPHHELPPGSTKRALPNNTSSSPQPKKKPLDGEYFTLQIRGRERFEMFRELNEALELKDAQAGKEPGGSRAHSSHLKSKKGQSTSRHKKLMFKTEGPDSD
Chain of von Hippel-Lindau disease tumor suppressor/Steroid hormone receptor ERR1 (Homo sapiens) (P40337 whole entry, looked up, one chain of several): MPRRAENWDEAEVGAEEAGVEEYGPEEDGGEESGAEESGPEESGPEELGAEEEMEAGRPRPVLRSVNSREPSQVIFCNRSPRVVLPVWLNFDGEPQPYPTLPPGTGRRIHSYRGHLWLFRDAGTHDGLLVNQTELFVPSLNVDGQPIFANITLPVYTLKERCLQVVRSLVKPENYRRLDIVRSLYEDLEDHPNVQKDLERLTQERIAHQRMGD

Q: For `COc1cc(C(=O)NCCOCCOCCOCCNC(=O)C[C@@H]2N=C(c3ccc(Cl)cc3)C3C(C)=C(C)SC3n3c(C)nnc32)ccc1NC(=O)[C@@H]1N[C@@H](CC(C)(C)C)[C@](C#N)(c2ccc(Cl)cc2F)[C@H]1c1cccc(Cl)c1F` (stereo not given in full), which fold change (FC) [1] is on record?
A: 5.9

Q: With `COc1cc(/C=C2/SC(=O)N(CCOCCC(=O)N[C@@H](C(=O)N3C[C@H](O)C[C@H]3C(=O)Nc3ccc(-c4scnc4C)cc3)C(C)(C)C)C2=O)ccc1Oc1ccc(C#N)cc1C(F)(F)F` as the compound, how does the Emax [2] read?
A: 86%

Q: And the Activity [3]?
A: 39%

Q: Which GI50 [4] does the source give for `C=CC(=O)N1CCC[C@@H](n2nc(-c3ccc(Oc4ccccc4)cc3)c3c(N)ncnc32)C1` [IBRUTINIB] here?
A: 700 nM

Q: Which GI50 [4] does the source give for `Nc1ncnc2c1c(-c1ccc(Oc3ccccc3)cc1)nn2[C@@H]1CCCN(C(=O)c2cn(CCOCCOCCOCCNc3cccc4c3C(=O)N(C3CCC(=O)NC3=O)C4=O)nn2)C1` (stereo not given in full) here?
A: 28 nM

Reference: ChEMBL document CHEMBL5244252, “PROTAC: A promising technology for cancer treatment” (Eur J Med Chem, 2020)
